Laboratory results: article PMC6389848, “Characterization and structure‐guided engineering of the novel versatile terpene monooxygenase CYP109Q5 from Chondromyces apiculatus DSM436” (Microbial Biotechnology, 2018)

What was measured:
CYP109B1 = molecular target: T1, CYP109B1 (Bacillus subtilis, UniProt O34374); assay: in vitro biotransformation, GC-FID / GC-MS; assay type: biochemical; settings: redox partners CamA/CamB from Pseudomonas putida, NAD(P)H, 1 mM substrate, 2 μM P450, pH 7.0, 30°C, 2 h
T1 construct: gene yjiB; purified enzyme; construct not described in main text
T1 sequence (O34374 1-396): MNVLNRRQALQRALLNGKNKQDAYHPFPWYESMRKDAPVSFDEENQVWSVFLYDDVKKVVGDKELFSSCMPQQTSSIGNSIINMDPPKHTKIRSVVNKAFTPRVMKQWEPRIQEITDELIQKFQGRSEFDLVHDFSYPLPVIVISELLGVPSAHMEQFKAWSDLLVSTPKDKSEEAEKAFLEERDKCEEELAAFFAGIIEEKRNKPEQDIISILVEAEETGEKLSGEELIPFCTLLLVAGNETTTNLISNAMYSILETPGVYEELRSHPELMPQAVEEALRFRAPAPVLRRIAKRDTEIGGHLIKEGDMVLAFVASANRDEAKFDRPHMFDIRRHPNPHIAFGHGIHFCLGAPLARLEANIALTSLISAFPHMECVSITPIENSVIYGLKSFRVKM

CYP109Q5 = molecular target: T2, CYP109Q5 (Chondromyces apiculatus, UniProt A0A017T5A5); assay: in vitro biotransformation, HPLC; assay type: biochemical; settings: redox partners CamA/CamB from Pseudomonas putida, NAD(P)H, 1 mM substrate, 2 μM P450, pH 7.0, 30°C
T2 construct: gene CAP_4855; native gene from genomic DNA in pBAD33, untagged, E. coli JW5510, partially purified by anion exchange
T2 sequence (A0A017T5A5 1-397): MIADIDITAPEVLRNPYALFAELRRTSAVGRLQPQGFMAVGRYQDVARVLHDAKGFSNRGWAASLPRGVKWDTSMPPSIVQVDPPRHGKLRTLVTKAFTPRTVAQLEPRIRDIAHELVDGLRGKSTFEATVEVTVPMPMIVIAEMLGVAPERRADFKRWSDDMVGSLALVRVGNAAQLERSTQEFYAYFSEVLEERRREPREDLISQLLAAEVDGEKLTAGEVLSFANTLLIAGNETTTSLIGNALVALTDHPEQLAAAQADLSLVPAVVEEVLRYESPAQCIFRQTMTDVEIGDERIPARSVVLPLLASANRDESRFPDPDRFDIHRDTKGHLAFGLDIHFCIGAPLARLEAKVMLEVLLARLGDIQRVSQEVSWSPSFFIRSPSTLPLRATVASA

Row | SMILES | in vitro biotransformation, GC-FID / GC-MS (CYP109B1) | in vitro biotransformation, HPLC (CYP109Q5)
1 | CC(=O)/C=C/C1=C(C)CCCC1(C)C [compound 1, β‐ionone] | The reference CYP109B1 hydroxylated β‐ionone exclusively in the allylic position | –
2 | O=C(O)Cc1ccccc1Nc1c(Cl)cccc1Cl [compound 26, diclofenac] | – | CYP109Q5 also exhibited activities towards diclofenac, mefenamic acid, nerolidol, camphor
